# Laboratory results from patent US20100041760A1, “MONOARYL AMINOTETRALINES” (priority 2008, published 2010).
# Test system: DK-PGD2-induced IL-13 production in T helper type 2 (Th2) cells
# Test: DK-PGD2-Induced IL-13 Production Assay in Th2 Cells
# Format: cell-based
# Conditions: human Th2 cells; 500 nM DK-PGD2; 4 hrs at 37° C.; 10% human AB serum; ELISA; read-out: IC50 value, inhibition of IL-13 production
# Description: Cultures of Th2 cells were established from blood of healthy human volunteers according to the following procedure. Peripheral blood mononuclear cells (PBMC) were first isolated from 50 mL of fresh blood by Ficoll-Hypaque density gradient centrifugation, followed by CD4^+ cell purification using a CD4^+ T Cell Isolation Kit II (from Miltenyi Biotec Inc.). The CD4^+ T cells were then differentiated to Th2 cells by culturing the cells in X-VIVO 15® medium (from Cambrex BioScience Walkersville Inc.) containing 10% human AB serum (serum of blood type AB from Invitrogen Corporation), 50 U/mL of recombinant human interleukin-2 (rhIL-2) (from PeproTech Inc.) and 100 ng/mL of recombinant human interleukin-4 (rhIL-4) (from PeproTech Inc.) for 7 days. The Th2 cells were isolated using a CD294 (CRTH2) MicroBead Kit (from Miltenyi Biotec Inc.) and amplified in X-VIVO 15® medium containing 10% human AB serum and 50 U/mL of rhIL-2 for 2 to 5 weeks. In general, 70% to 80% of the Th2 cells used in the assay are CRTH2-positive when analyzed by fluorescence-activated cell sorting using the BM16 antibody (as previously described) conjugated to phycoerythrin (PE).
# To determine cellular inhibitory potency, compounds at various concentrations were incubated with 2.5×10^4 Th2 cells and 500 nM DK-PGD2 for 4 hrs at 37° C. in 200 μL of X-VIVO 15® medium containing 10% human AB serum. […] The spontaneous production of IL-13 by Th2 cells was determined in the absence of DK-PGD2 stimulation and the value was subtracted from that in the presence of each compound for percent inhibition and IC50 calculations.
# The percent inhibition of interleukin 13 (IL-13) production for a compound at various concentrations was calculated according to the following formula, [1-(IL-13 production in the presence of compound)/(IL-13 production in the presence of 0.15% DMSO)]×100. The IC50 value, defined as the concentration of a compound that is required for 50% inhibition of IL-13 production, was calculated by fitting the percent inhibition data for 7 concentrations to a sigmoidal dose-response (4 parameter logistic) model in the XLfit® software Excel add-in program [ID Business Solutions Ltd., model 205, where F(x)=(A+(B−A)/(1+((C/x)̂D)))].
row,SMILES,IC50 [µM]
1,"CN([C@@H]1CCCc2c(OCC(=O)O)cccc21)S(=O)(=O)c1cc(F)cc(C(F)(F)F)c1 [Example 1-1, {(R)-5-[(3-fluoro-5-trifluoromethyl-benzenesulfonyl)-methyl-amino]-5,6,7,8-tetrahydro-naphthalen-1-yloxy}-acetic acid]",4.65
2,"CCOc1cc(C(F)(F)F)cc(S(=O)(=O)N(C)[C@@H]2CCCc3c(OCC(=O)O)cccc32)c1 [Example 9-2, {(R)-5-[(3-ethoxy-5-trifluoromethyl-benzenesulfonyl)-methyl-amino]-5,6,7,8-tetrahydro-naphthalen-1-yloxy}-acetic acid]",4.84
3,"CN([C@@H]1CCCc2c(OCC(=O)O)cccc21)S(=O)(=O)c1cc(OC2CCCC2)cc(C(F)(F)F)c1 [Example 9-3, {(R)-5-[(3-cyclopentyloxy-5-trifluoromethyl-benzenesulfonyl)-methyl-amino]-5,6,7,8-tetrahydro-naphthalen-1-yloxy}-acetic acid]",5.09
4,"CCN(CC)c1cc(C(F)(F)F)cc(S(=O)(=O)N(C)[C@@H]2CCCc3c(OCC(=O)O)cccc32)c1 [Example 4-2, {(R)-5-[(3-diethylamino-5-trifluoromethyl-benzenesulfonyl)-methyl-amino]-5,6,7,8-tetrahydro-naphthalen-1-yloxy}-acetic acid]",3.01
